Laboratory results taken from patent US20210113501A1, “METHOD OF ADMINISTERING BETA-HYDROXY-BETA-METHYLBUTYRATE (HMB)” (Metabolic Technologies, Inc., priority 2009, published 2021).

Experiment: Study 1 blood chemistry
Format: in vivo, human
Details: for Gamma-glutamyl: in U/L (unit assumed)
Procedure: Study 1 design. For study 1 the subjects reported to the laboratory in the morning following an overnight fast. Before ingestion of one of the supplemental treatments, a flexible sterile polyethylene catheter was inserted into a forearm vein using sterile procedures and a pre-ingestion blood sample was drawn. Subsequent blood samples were taken at 0, 2, 5, 10, 15, 25, 35, 45, 60, 90, 120 and 180 min after ingestion of the treatment. Plasma was separated and samples were stored frozen at −70° C. for analysis of HMB concentration. In addition, a portion of the pre-ingestion and 180 minute blood samples were used for measurements (LabCorp, Kansas City, Mo.) of glucose, uric acid, blood urea nitrogen (BUN), creatinine, sodium, potassium, chloride, carbon dioxide, phosphorous, protein, albumin, globulin, albumin:globulin ratio, total bilirubin, direct bilirubin, alkaline phosphatase, lactate dehydrogenase, aspartate aminotransferase (AST), alanine aminotransferase (ALT), gamma-glutamyl transpeptidase (GGT), iron binding capacity (TIBC), unsaturated iron binding capacity (UIBC), iron, iron saturation, total cholesterol, triglycerides, high density lipoprotein (HDL), low density lipoprotein (LDL), and cholesterol ratio. A complete blood count (CBC) was also performed before and after the 180 min treatment period. Subjects also completed a brief questionnaire to report any physical symptoms (such as nausea, headache, etc) they may have experienced during the experiment.
The data were analyzed using a crossover design with Proc GLM in SAS. (45) For the timed sampling of plasma HMB a repeated measures polynomial model was used. The model included subject, order, and treatment main effects and time by treatment interaction where appropriate. For other parameters Proc GLM was also used with subject, order, and treatment main effects and the p values are reported for the treatment main effect. Statistical significance was determined for p<0.05 and a trend was determined for 0.05<p<0.10.

With `CC(C)(O)CC(=O)[O-].CC(C)(O)CC(=O)[O-].[Ca+2]` [CaHMB, calcium β-hydroxy-β-methylbutryate, reference compound] as the molecule, how does the “A:G Ratio” value (After (180 min)) read?
The value was 1.7 ± 0.1.

What about the “Alanine Aminotransferase” value (After (180 min)) of the same molecule?
The value was 15.6 ± 2.0 IU/L.

What about the Albumin (After (180 min)) of the same molecule?
The Albumin was 4.1 ± 0.1 g/dL.

And the “Alkaline Phosphatase” value (After (180 min))?
Its value is 68.4 ± 8.4 IU/L.

And the “Aspartate Aminotransferase” value (After (180 min))?
The value was 22.4 ± 1.8 IU/L.

What about the “Blood Urea Nitrogen” value (After (180 min)) of the same molecule?
Its value is 11.3 ± 0.9 mg/dL.

What about the CO2 (After (180 min)) of the same molecule?
Its CO2 is 24.8 ± 0.5 mEq/L.

What about the Chloride (After (180 min)) of the same molecule?
The Chloride was 103.1 ± 0.7 mEq/L.

What about the “Cholesterol Ratio” value (After (180 min)) of the same molecule?
The value was 3.0 ± 0.1.

And the Creatinine (After (180 min))?
Its Creatinine is 0.9 ± 0.1 mg/dL.

And the “Direct Bilirubin” value (After (180 min))?
Its value is 0.1 ± 0.01 mg/dL.

And the Globulin (After (180 min))?
Its Globulin is 2.5 ± 0.2 g/dL.

What about the Glucose (After (180 min)) of the same molecule?
The Glucose was 76.4 ± 3.2 mg/dL.

What about the HDL (After (180 min)) of the same molecule?
The HDL was 53.1 ± 3.8 mg/dL.

And the Iron (After (180 min))?
The Iron was 93.0 ± 16.8 µg/dL.

And the “Iron Binding Capacity” value (After (180 min))?
Its value is 342.8 ± 35.9 µg/dL.

And the “Iron Saturation” value (After (180 min))?
The value was 31.1 ± 8.9%.

What about the LDL (After (180 min)) of the same molecule?
The LDL was 86.5 ± 5.7 mg/dL.

And the “Lactate Dehydrogenase” value (After (180 min))?
Its value is 165.6 ± 10.7 IU/L.

What about the Phosphorus (After (180 min)) of the same molecule?
Its Phosphorus is 3.5 ± 0.3 mg/dL.

And the Potassium (After (180 min))?
The Potassium was 4.7 ± 0.2 mEq/L.

And the Protein (After (180 min))?
Its Protein is 6.5 ± 0.3 g/dL.

And the Sodium (After (180 min))?
The Sodium was 139.4 ± 0.8 mEq/L.

What about the “Total Bilirubin” value (After (180 min)) of the same molecule?
Its value is 0.5 ± 0.08 mg/dL.

What about the “Total Cholesterol” value (After (180 min)) of the same molecule?
Its value is 153.9 ± 9.7 mg/dL.

And the Triglycerides (After (180 min))?
The Triglycerides was 71.6 ± 11.2 mg/dL.

What about the UIBC (After (180 min)) of the same molecule?
The UIBC was 249.8 ± 47.7 µg/dL.

What about the “Uric Acid” value (After (180 min)) of the same molecule?
Its value is 4.5 ± 0.4 mg/dL.

And the Gamma-glutamyl (After (180 min))?
The Gamma-glutamyl was 13.1 ± 0.9.

What about the “A:G Ratio” value (Before) of the same molecule?
Its value is 1.8 ± 0.1.

What about the “Alanine Aminotransferase” value (Before) of the same molecule?
The value was 14.1 ± 1.5 IU/L.

And the Albumin (Before)?
Its Albumin is 4.0 ± 0.1 g/dL.

And the “Alkaline Phosphatase” value (Before)?
Its value is 66.5 ± 6.5 IU/L.

What about the “Aspartate Aminotransferase” value (Before) of the same molecule?
Its value is 21.4 ± 1.5 IU/L.

What about the “Blood Urea Nitrogen” value (Before) of the same molecule?
Its value is 12.1 ± 1.0 mg/dL.

What about the CO2 (Before) of the same molecule?
The CO2 was 23.4 ± 0.6 mEq/L.

And the Chloride (Before)?
The Chloride was 103.3 ± 0.6 mEq/L.

And the “Cholesterol Ratio” value (Before)?
The value was 3.0 ± 0.1.

And the Creatinine (Before)?
The Creatinine was 0.9 ± 0.1 mg/dL.

What about the “Direct Bilirubin” value (Before) of the same molecule?
Its value is 0.1 ± 0.02 mg/dL.

What about the Globulin (Before) of the same molecule?
The Globulin was 2.3 ± 0.2 g/dL.

What about the Glucose (Before) of the same molecule?
Its Glucose is 72.6 ± 1.6 mg/dL.

What about the HDL (Before) of the same molecule?
The HDL was 51.3 ± 3.2 mg/dL.

What about the Iron (Before) of the same molecule?
The Iron was 83.3 ± 16.7 µg/dL.

And the “Iron Binding Capacity” value (Before)?
Its value is 330.4 ± 32.9 µg/dL.

What about the “Iron Saturation” value (Before) of the same molecule?
Its value is 29.9 ± 9.5%.

What about the LDL (Before) of the same molecule?
Its LDL is 86.1 ± 5.3 mg/dL.

And the “Lactate Dehydrogenase” value (Before)?
The value was 160.9 ± 9.5 IU/L.

What about the Phosphorus (Before) of the same molecule?
Its Phosphorus is 3.9 ± 0.2 mg/dL.

What about the Potassium (Before) of the same molecule?
The Potassium was 4.1 ± 0.1 mEq/L.

And the Protein (Before)?
Its Protein is 6.3 ± 0.2 g/dL.

And the Sodium (Before)?
Its Sodium is 139.1 ± 0.5 mEq/L.

What about the “Total Bilirubin” value (Before) of the same molecule?
The value was 0.5 ± 0.07 mg/dL.

And the “Total Cholesterol” value (Before)?
Its value is 153.4 ± 9.1 mg/dL.

And the Triglycerides (Before)?
The Triglycerides was 80.4 ± 11.6 mg/dL.

What about the UIBC (Before) of the same molecule?
Its UIBC is 247.1 ± 45.0 µg/dL.

What about the “Uric Acid” value (Before) of the same molecule?
The value was 4.5 ± 0.3 mg/dL.

And the “A:G Ratio % Change” value (Before to After)?
Its value is −8.9%.

What about the “Alanine Aminotransferase % Change” value (Before to After) of the same molecule?
Its value is 10.6%.

And the “Albumin % Change” value (Before to After)?
Its value is 0.3%.

What about the “Alkaline Phosphatase % Change” value (Before to After) of the same molecule?
The value was 2.8%.

What about the “Aspartate Aminotransferase % Change” value (Before to After) of the same molecule?
The value was 4.7%.

What about the “Blood Urea Nitrogen % Change” value (Before to After) of the same molecule?
The value was −7.2%.

And the “CO2 % Change” value (Before to After)?
Its value is 5.9%.

And the “Chloride % Change” value (Before to After)?
The value was −0.1%.

And the “Cholesterol Ratio % Change” value (Before to After)?
The value was −2.5%.

What about the “Creatinine % Change” value (Before to After) of the same molecule?
The value was 0.5%.

And the “Direct Bilirubin % Change” value (Before to After)?
Its value is 5.8%.

What about the “Gamma-glutamyl % Change” value (Before to After) of the same molecule?
Its value is −4.5%.

And the “Globulin % Change” value (Before to After)?
The value was 8.2%.

What about the “Glucose % Change” value (Before to After) of the same molecule?
Its value is 5.2%.

And the “HDL % Change” value (Before to After)?
The value was 3.7%.

And the “Iron % Change” value (Before to After)?
Its value is 11.7%.

What about the “Iron Binding Capacity % Change” value (Before to After) of the same molecule?
Its value is 3.7%.

What about the “Iron Saturation % Change” value (Before to After) of the same molecule?
Its value is 4.2%.

What about the “LDL % Change” value (Before to After) of the same molecule?
The value was 0.4%.

What about the “Lactate Dehydrogenase % Change” value (Before to After) of the same molecule?
Its value is 3.0%.

And the “Phosphorus % Change” value (Before to After)?
Its value is −10.8%.

And the “Potassium % Change” value (Before to After)?
The value was 13.4%.

What about the “Protein % Change” value (Before to After) of the same molecule?
Its value is 3.2%.

And the “Sodium % Change” value (Before to After)?
Its value is 0.2%.

What about the “Total Bilirubin % Change” value (Before to After) of the same molecule?
Its value is 7.9%.

And the “Total Cholesterol % Change” value (Before to After)?
The value was 0.3%.

And the “Triglycerides % Change” value (Before to After)?
Its value is −10.9%.

And the “UIBC % Change” value (Before to After)?
Its value is 1.1%.

And the “Uric Acid % Change” value (Before to After)?
Its value is −1.4%.

And the Gamma-glutamyl (Before)?
Its Gamma-glutamyl is 13.8 ± 0.9.
